These are literature values, as cited in US20220160668A1, “FORMULATIONS AND METHODS FOR TREATING CONDITIONS OF THE EYE” (Sight Sciences, Inc., priority 2020, published 2022).

For the series the following is noted: antibiotic level of azithromycin (1%).

`CC[C@H]1OC(=O)[C@H](C)[C@@H](O[C@H]2C[C@@](C)(OC)[C@@H](O)[C@H](C)O2)[C@H](C)[C@@H](O[C@@H]2O[C@H](C)C[C@H](N(C)C)[C@H]2O)[C@](C)(O)C[C@@H](C)CN(C)[C@H](C)[C@@H](O)[C@]1(C)O` [azithromycin]: the “effect on phase transition temperature of meibum lipids and lipid ordering” value is “can improve the phase transition temperature of meibum lipids and lipid ordering”.
